Measurements as given in PMC12304869 (Obesity (Silver Spring, Md.), 2025).

Legend:
[1] = cited from earlier work
[2] = cited from earlier work; remark: listed apart in the source
[3] = Phase 2 part 2: pharmacodynamics; type: in vivo, human; settings: part 2b
[4] = type: in vivo, male Sprague Dawley rats; settings: DIO rats
[5] = DIO rats: body weight during daily s.c. semaglutide; type: in vivo, male Sprague Dawley rats; settings: n = 9

Row | Substance | half‐life (t1/2) [1] | weight loss after 12 weeks of treatment ([2]; intranasal, 200‐μg dose, participants with obesity, placebo −2.8 kg) [kg] | treatment discontinuation due to nausea and vomiting ([2]; phase 1, intranasal 600 μg) | change in body weight from baseline (week 32) to EOT (week 48) ([3]; placebo + semaglutide 2.4 mg weekly, ANCOVA estimate, FAS) [%] | change in body weight from baseline to EOT ([3]; placebo + semaglutide 2.4 mg) [kg] | cumulative food intake from day 1 to 26, mean (SD) ([4]; vehicle + 30 nmol/kg semaglutide) | mean body weight change after 26 days, mean (SD) ([4]; vehicle + 30 nmol/kg semaglutide daily s.c., n = 9) | body weight loss after 26 days of treatment, mean (SD) ([5]; semaglutide 3 nmol/kg daily s.c.) | body weight loss after 26 days of treatment, mean (SD) ([5]; semaglutide 30 nmol/kg daily s.c.) | body weight loss after 26 days of treatment, mean (SD) ([5]; semaglutide 100 nmol/kg daily s.c.) | weight loss ([2]; semaglutide 2.4 mg alone, over 68 weeks) [%]
1 | PYY3‐36: active, Y2‐selective cleaved form of the hormone peptide YY | roughly 10 min | -3.7 | a majority of participants receiving 600 μg discontinued treatment | – | – | – | – | – | – | – | –
2 | semaglutide | – | – | – | −3.1 | -2.2 | 389 (53) g | −12.5% (3.4%) | −8.8% (2.9%) | −14.2% (3.0%) | −17.4% (5.7%) | 14.9
